Results on three molecules are retold here after publication PMC1968811, “Pharmacokinetics in melanoma-bearing mice of 5-dihydroxyboryl-6-propyl-2-thiouracil (BPTU), a candidate compound for boron neutron capture therapy” (British Journal of Cancer, 1994).

For series [1], the system named is pigmented B16 melanoma (B16wt). In words: Tumour boron uptake and retention in subcutaneous pigmented B16 tumours. The conditions noted are these: for Tumour boron conc. / Tumour-to-blood ratio (boron): BSH 50 mg kg-1 boron single dose, B16.wt. In kind it is in vivo, C57/BL mice. From the text:
(§1) Br. J. Cancer (1994), 69, 641 647 ? Macmillan Press Ltd., 1994~~~~~~~~~~~~~~~~~~~~~~~~~~~~~~~~~~~~~~~~~~~~~~~~~~~~~~~~~~~~~~~~~~~~~~~~~~~~~~~~~~~~~ Pharmacokinetics in melanoma-bearing- mice of 5-dihydroxyboryl- 6-propyl-2-thiouracil (BPTU), a candidate compound for boron neutron capture therapy R. Verrijkl, I.J.H. Smolders', R. Huiskamp2, P.R. Gavin3,. K.H.I. Philipp2 & A.C. Begg' 'The Netherlands Cancer Institute, Division of Experimental Therapy, Plesmanlaan 121, 1066 CX, Amsterdam, The Netherlands; 2The Netherlands Energy Research Foundation, Division of Radiobiology and Radioecology, PO Box 1, 1755 SG, Petten, The Netherlands; 3Department of Veterinary Clinical Medicine and Surgery and Washington Animal Disease and Diagnostic Laboratory, Washington State University, Pullman, Washington 99164-6610, USA. Summary Blood pharmacokinetics and tissue distribution of 5-dihydroxyboryl-6-propyl-2-thiouracil (BPTU), a boron carrier with postulated melanin-seeking properties for boron neutron capture therapy, were deter- mined in C57/BL mice with subcutaneous pigmented or non-pigmented B16 melanomas. Borocaptate sodium (BSH) was used as a boron compound without melanin-seeking properties in a comparative biodistribution study in the same animal tumour models. […] BPTU was found in large concentra- tions in kidney and liver. Brain boron was approximately 10-fold lower than tumour boron. […] Owing to solubility limits, tumour boron concentrations in this mouse study were too low for effective application of BNCT. However, the high tumour-to-blood and tumour-to-normal tissues ratios indicate that, with appropriate formulation, BPTU could be a promising candidate for clinical BNCT. […] The selective accumulation of "'B-containing compounds in tumours and subsequent irradiation with low-energy (thermal) neutrons form the basis of BNCT. The short track lengths of `'B(n,a)7Li fission pro- ducts (9 and 5 iLm for a and 7Li respectively) offer partial restriction of the radiation dose to the "'B-containing cells. Additional advantages owing to the high-LET (linear energy transfer) character of the emitted radiation are higher biological efficacies compared with photons or X-rays and less effect of hypoxia or cell cycle distribution on the therapeutic effect. The relatively high resistance of melanomas for photon therapy and the presence of a bio- chemical rationale for boron targeting explain the efforts made in this area (Mishima et al., 1989; Madoc Jones et al., 1990). The often high rate of melanogenesis in melanoma cells has led to the development of several boron drugs with melanoma-seeking capacity. The L-isomer of boronphenylalanine (BPA) is taken up by melanoma cells both in vitro and in vivo (Ichihashi et al., 1982; 1989; Coderre et al., 1987; 1990; Allen et al., 1992; Packer et al., 1992). Animal studies on BNCT efficacy and normal tissue tolerance with BPA have also been performed (Coderre et al., 1991; 1992; Hiratsuka et al., 1991). Although the uptake of BPA in melanoma cells is well accepted, incor- poration of boron into melanin might not occur, resulting in poor retention. Boronated thiouracils that enter the melanogenesis pathway at a different point from BPA have been recently synthesised, aiming at boron incorporation into the melanin for better retention (Tjarks & Gabel, 1991). […] Since the radiation dose in BNCT is mainly dependent on cellular boron levels, amelanotic tumour cell subpopulations may limit the efficacy of boron compounds that target the pigmented tumour cell fraction only. […] Begg. Received 1 September 1993; and in revised form 15 November 1993. into cell populations with different pigmentation levels in experimental tumour models, melanomas often increase in the amelanotic fraction with tumour progression and metas- tasis development in humans (Guiliano et al., 1982; Elder, 1987). It is therefore important to establish the capacity of melanoma-seeking boron drugs to target the amelanotic cells in a tumour. […]

Series [2] deals with non-pigmented B16.013 melanoma. Put plainly: Tumour boron uptake and retention in subcutaneous non-pigmented B16.013 tumours. It counts as in vivo, C57/BL mice. Conditions: for Tumour boron conc. / Tumour-to-blood ratio (boron): BSH 50 mg kg-1 boron single dose, B16.013.
Description: as §1

A short description of series [3]: Boron distribution in blood and normal tissues (skin, muscle, brain, kidneys, liver) of tumour-bearing mice. It counts as in vivo, C57/BL mice. The source says:
(§2) Br. J. Cancer (1994), 69, 641 647 ? Macmillan Press Ltd., 1994~~~~~~~~~~~~~~~~~~~~~~~~~~~~~~~~~~~~~~~~~~~~~~~~~~~~~~~~~~~~~~~~~~~~~~~~~~~~~~~~~~~~~ Pharmacokinetics in melanoma-bearing- mice of 5-dihydroxyboryl- 6-propyl-2-thiouracil (BPTU), a candidate compound for boron neutron capture therapy R. Verrijkl, I.J.H. Smolders', R. Huiskamp2, P.R. Gavin3,. K.H.I. Philipp2 & A.C. Begg' 'The Netherlands Cancer Institute, Division of Experimental Therapy, Plesmanlaan 121, 1066 CX, Amsterdam, The Netherlands; 2The Netherlands Energy Research Foundation, Division of Radiobiology and Radioecology, PO Box 1, 1755 SG, Petten, The Netherlands; 3Department of Veterinary Clinical Medicine and Surgery and Washington Animal Disease and Diagnostic Laboratory, Washington State University, Pullman, Washington 99164-6610, USA. Summary Blood pharmacokinetics and tissue distribution of 5-dihydroxyboryl-6-propyl-2-thiouracil (BPTU), a boron carrier with postulated melanin-seeking properties for boron neutron capture therapy, were deter- mined in C57/BL mice with subcutaneous pigmented or non-pigmented B16 melanomas. Borocaptate sodium (BSH) was used as a boron compound without melanin-seeking properties in a comparative biodistribution study in the same animal tumour models. […] BPTU was found in large concentra- tions in kidney and liver. Brain boron was approximately 10-fold lower than tumour boron. […] Owing to solubility limits, tumour boron concentrations in this mouse study were too low for effective application of BNCT. However, the high tumour-to-blood and tumour-to-normal tissues ratios indicate that, with appropriate formulation, BPTU could be a promising candidate for clinical BNCT. […] The selective accumulation of "'B-containing compounds in tumours and subsequent irradiation with low-energy (thermal) neutrons form the basis of BNCT. The short track lengths of `'B(n,a)7Li fission pro- ducts (9 and 5 iLm for a and 7Li respectively) offer partial restriction of the radiation dose to the "'B-containing cells. Additional advantages owing to the high-LET (linear energy transfer) character of the emitted radiation are higher biological efficacies compared with photons or X-rays and less effect of hypoxia or cell cycle distribution on the therapeutic effect. The relatively high resistance of melanomas for photon therapy and the presence of a bio- chemical rationale for boron targeting explain the efforts made in this area (Mishima et al., 1989; Madoc Jones et al., 1990). The often high rate of melanogenesis in melanoma cells has led to the development of several boron drugs with melanoma-seeking capacity. […]

Series [4] in a line: Solubility limit in formulation for injection. In kind it is physicochemical. The conditions noted are these: limited the dose administered to mice. The source says:
Br. J. Cancer (1994), 69, 641 647 ? Macmillan Press Ltd., 1994~~~~~~~~~~~~~~~~~~~~~~~~~~~~~~~~~~~~~~~~~~~~~~~~~~~~~~~~~~~~~~~~~~~~~~~~~~~~~~~~~~~~~ Pharmacokinetics in melanoma-bearing- mice of 5-dihydroxyboryl- 6-propyl-2-thiouracil (BPTU), a candidate compound for boron neutron capture therapy R. Verrijkl, I.J.H. Smolders', R. Huiskamp2, P.R. Gavin3,. K.H.I. Philipp2 & A.C. Begg' 'The Netherlands Cancer Institute, Division of Experimental Therapy, Plesmanlaan 121, 1066 CX, Amsterdam, The Netherlands; 2The Netherlands Energy Research Foundation, Division of Radiobiology and Radioecology, PO Box 1, 1755 SG, Petten, The Netherlands; 3Department of Veterinary Clinical Medicine and Surgery and Washington Animal Disease and Diagnostic Laboratory, Washington State University, Pullman, Washington 99164-6610, USA. Summary Blood pharmacokinetics and tissue distribution of 5-dihydroxyboryl-6-propyl-2-thiouracil (BPTU), a boron carrier with postulated melanin-seeking properties for boron neutron capture therapy, were deter- mined in C57/BL mice with subcutaneous pigmented or non-pigmented B16 melanomas. Borocaptate sodium (BSH) was used as a boron compound without melanin-seeking properties in a comparative biodistribution study in the same animal tumour models. […] BPTU was found in large concentra- tions in kidney and liver. Brain boron was approximately 10-fold lower than tumour boron. […]

For a further series, the system named is melanotic B16 cells. Conditions: cited from earlier work; for Retention in cells in vitro: after washing, ref R. Verrijk et al., 1991, unpublished data.
Series [5] deals with non-pigmented B16.013 subclone. Also on record: method as in R. Verrijk et al., 1991, unpublished data. The conditions noted are these: non-pigmented B16.013 cells; ref R. Verrijk et al., 1991, unpublished data; cited from earlier work.
Series [6] in a line: Blood boron pharmacokinetics in B16 melanoma-bearing mice (ICP-AES, two-compartment fit). It counts as in vivo, C57/BL mice. The conditions noted are these: for Cmax blood, maximum boron concentration in blood: calculated values, BSH 50 mg kg-1 boron i.v.
Description: as §2, with “cells.” for “cells. Additional advantages owing to the high-LET (linear energy transfer) character of the emitted radiation are higher biological efficacies compared with photons or X-rays and less effect of hypoxia or cell cycle distribution on the therapeutic effect. The relatively high resistance of melanomas for photon therapy and the presence of a bio- chemical rationale for boron targeting explain the efforts made in this area (Mishima et al., 1989; Madoc Jones et al., 1990). The often high rate of melanogenesis in melanoma cells has led to the development of several boron drugs with melanoma-seeking capacity.”

Series [7] concerns subcutaneous fibrosarcoma RIF-1. In words: BSH boron pharmacokinetics in blood and RIF-1 tumour tissue. In kind it is in vivo, C3H/Km mice.
The mark [8] stands for this setting: BSH 50 mg kg-1 boron i.v., 12 min after administration.

On to `CCCc1[nH]c(=S)[nH]c(=O)c1B(O)O` [BPTU, 5-dihydroxyboryl-6-propyl-2-thiouracil], for which, in series [1] (4 x 3.15 vs 3.15 mg kg-1 boron, 24 h, pigmented B16), the “Change of mean tumour boron concentration, multiple vs single BPTU administration” value was “increased more than three times”. The “Tumour boron vs blood boron profile” value in series [2] (BPTU single dose, non-pigmented tumour variant) is given as “tumour boron levels closely followed blood levels”. Moreover, the “Boron in kidney and liver” value in series [3] (BPTU single doses) was “found in large concentrations in kidney and liver”. Moreover, in series [4], the Solubility entry is given as “insufficient solubility”. Moreover, the “Retention in cells in vitro” value in the series with melanotic B16 cells (melanotic B16 cells) was “better retained in the cells than BPA or BSH”; in series [5] it was “failed to be retained”.

For the molecule `O=c1[nH]c(=S)[nH]cc1B(O)O` [BTU, boronthiouracil], the “Retention in cells in vitro” value (in the series on melanotic B16 cells (melanotic B16 cells); in series [5]) was “showed no retention at all in either cell line” in each case.

Consider Borocaptate sodium [BSH], for which the “Cmax values relative to BPTU” value in series [6] (BSH 50 vs BPTU 3.15 mg kg-1 boron) is “approximately 10 fold”. Moreover, the “Cmax blood, maximum boron concentration in blood” value is 59.4 ± 10.6 g mli in series [6] (B16wt-bearing mice) and 54.1 ± 14.6 g mli in series [6] (B16.013-bearing mice). For the same molecule, the “Mean ratio Cmax tumour/injected dose” value stood at 0.7 in series [1] (BSH 50 mg kg-1 boron i.v., B16wt tumour) and 1.0 in series [2] (BSH 50 mg kg-1 boron i.v., B16.013 tumour). Besides, the Tumour boron conc. in series [1] (4 h) stood at 7.6 g g-g'; in series [1] (24 h), 2.3 g g-g'; in series [2] (4 h) it was 10.5 g g-g'; in series [2] (24 h) it was 2.2 g g-g'. For the same molecule, the “Tumour-to-blood ratio (boron)” value in series [1] (4 h) amounted to 1.1; in series [1] (24 h) it was 3.4; in series [2] (4 h), 1.5; in series [2] (24 h), 4.0. Moreover, the “Retention of boron in tumour” value in series [1] (BSH 50 mg kg-1 boron, 24 and 48 h, pigmented B16) was “retained in B16 tumours at 24 and 48 h, irrespective of pigmentation degree”; in series [2] (BSH 50 mg kg-1 boron, 24 and 48 h, non-pigmented B16), “retained in B16 tumours at 24 and 48 h, irrespective of pigmentation degree”. For the same molecule, the “Cmax tumour, maximum boron concentration in tumour” value in series [1] (highest measured values, BSH 50 mg kg-1 boron i.v., B16wt tumour) was 32.8 3.52 g mg-; in series [2] (highest measured values, BSH 50 mg kg-1 boron i.v., B16.013 tumour) it was 49.8 11.0 g mg-. In addition, the Liver boron level result in series [3] (setting [8]) is given as “up to 230 Agg- g”. Also, the “Liver boron relative to blood boron” value in series [3] (setting [8]) came out at 8 fold. Further, in series [3] (BSH, during the tissue distribution phase), the “Liver-to-kidney boron concentration ratio” value was 2-4. In series [7] (BSH 50 mg kg-1 boron, RIF-1 fibrosarcoma, 24 or 48 h), the “Tumour-to-blood ratios of boron” value was “not significantly above unity”. The Boron tumour-to-blood ratios result in series [7] (BSH, at times before 24 h, tumour model not named at the place) was “below 1”. For the same molecule, the “Levels of boron in cells vs culture medium” value in the series with melanotic B16 cells (melanotic B16 cells incubated with BSH, ref Verrijk et al., 1992) is “higher than in the culture medium only after 16 h incubation”. The “Cellular boron retention after washing” value in the series on melanotic B16 cells (melanotic B16 cells, washing with boron-free culture medium for 4 h, ref Verrijk et al., 1992) is recorded as “Partial cel- lular boron retention”.
